Data published in publication PMC3062530, “A Novel Mechanism of Programmed Cell Death in Bacteria by Toxin–Antitoxin Systems Corrupts Peptidoglycan Synthesis” (PLoS Biology, 2011).
pKi: −log10 of the molar value.

What was measured:
MurA [1] = target: T1, MurA (Escherichia coli, UniProt P0A749); experiment: coupled phosphate-release fluorescence assay (7-methylguanosine / purine nucleoside phosphorylase), global fit; type: biochemical; conditions: competitive with UNAG; 1 mM phosphoenolpyruvate, pH 7.5, 50 mM NaCl
T1 construct: purified enzyme

MurA [2] = target: T1, MurA; experiment: as above; type: biochemical; conditions: 1 mM phosphoenolpyruvate, pH 7.5, 50 mM NaCl; global fit with UNAG-3P inhibition

T1 sequence (P0A749 whole entry): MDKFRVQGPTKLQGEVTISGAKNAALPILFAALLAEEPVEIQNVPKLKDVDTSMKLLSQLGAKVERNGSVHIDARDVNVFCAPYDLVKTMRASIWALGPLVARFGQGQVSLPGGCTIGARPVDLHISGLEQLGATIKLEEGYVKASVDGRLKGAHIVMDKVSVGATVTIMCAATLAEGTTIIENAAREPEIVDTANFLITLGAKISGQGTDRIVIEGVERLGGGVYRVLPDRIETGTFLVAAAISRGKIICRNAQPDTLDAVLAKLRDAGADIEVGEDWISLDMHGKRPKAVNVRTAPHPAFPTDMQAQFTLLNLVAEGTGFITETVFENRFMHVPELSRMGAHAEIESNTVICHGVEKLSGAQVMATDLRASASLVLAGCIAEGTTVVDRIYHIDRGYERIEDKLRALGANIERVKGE

Row | SMILES | pKi (MurA [1]) | Km (MurA [2]) [µM]
1 | CC(=O)N[C@H]1[C@@H](OP(=O)(O)OP(=O)(O)OC[C@H]2O[C@@H](n3ccc(=O)[nH]c3=O)[C@H](O)[C@@H]2O)O[C@H](CO)[C@@H](O)[C@@H]1OP(=O)(O)O [UNAG-3P] | 5.15 | –
2 | CC(=O)N[C@H]1[C@@H](OP(=O)(O)OP(=O)(O)OC[C@H]2O[C@@H](n3ccc(=O)[nH]c3=O)[C@H](O)[C@@H]2O)O[C@H](CO)[C@@H](O)[C@@H]1O [UNAG] | – | 15
